Read-outs that look alike come from different tables or passages of the source.
Tests used:
[1] = test system: HCC1806 cells; experiment: Inhibitory effect on HCC1806 cell proliferation; type: cell-based; conditions: Homo sapiens; HCC1806, 72 h incubation, Cell Counting-Lite 2.0
Description: (1) Cell plating: First, tumor cells HCC1806 were cultured with corresponding culture medium, the cells were digested with trypsin and centrifuged, then the cells were resuspended and counted, and the cells were adjusted to an appropriate concentration for plating.
(§1) Co-incubation of the compounds of the present invention and tumor cells: 90 μL of cell suspension was added to 96-well plates respectively. After cell adherence, 10 μL of bioactive molecules (compounds of the present invention) diluted with culture medium were added into the wells of the above plates, and incubated for 72 h.
(§2) In vitro cell viability detection: After the incubation, 50 μL of Cell Counting-Lite™ 2.0 reagent (Vazyme) was added to each well, shaken and mixed well in the dark, and reacted for 10 minutes before testing. Microplate reader (manufacturer: BMG, Model: PHERA Star-FS) was used for reading. The culture wells without cells were used as the background RLU, and the culture wells with cells but no compound were used as the cell control RLU. Cell inhibition rate=1−(sample RLU−background RLU)/(cell control RLU−background RLU)×100%. The half-inhibition concentration (IC50) of compound was calculated by fitting the curve according to the four-parameter model.

[2] = test system: MDA-MB-231 cells; experiment: Inhibitory effect on MDA-MB-231 cell proliferation; type: cell-based; conditions: Homo sapiens; MDA-MB-231, 72 h incubation, Cell Counting-Lite 2.0
Description: (1) Cell plating: First, tumor cells MDA-MB-231 were cultured with corresponding culture medium, the cells were digested with trypsin and centrifuged, then the cells were resuspended and counted, and the cells were adjusted to an appropriate concentration for plating.
as §1, §2

[3] = test system: NCI-H358 cells; experiment: Inhibitory effect on NCI-H358 cell proliferation; type: cell-based; conditions: Homo sapiens; NCI-H358, 72 h incubation, Cell Counting-Lite 2.0
Description: (1) Cell plating: First, tumor cells NCI-H358 were cultured with corresponding culture medium, the cells were digested with trypsin and centrifuged, then the cells were resuspended and counted, and the cells were adjusted to an appropriate concentration for plating.
as §1, §2

[4] = test system: MDCK cells; experiment: Permeability test in MDCK cell model; type: in vitro ADME
Description: (§3) The MDCK cell model was used to evaluate the permeability of the compounds, the LC-MS/MS method was used to determine the concentration of the substance to be tested, and the apparent permeability coefficient (Papp) and efflux ratio were calculated [Efflux ratio=Papp(B→A)/Papp(A→B)].
(§4) Complete culture medium: 10% fetal bovine serum and 1% penicillin/streptomycin were added to MEM culture medium.
(§5) Digestive solution: 0.05% trypsin-EDTA.
(§6) HBSS buffer: HBSS containing Ca^2+, Mg^2+.
(§7) Permeating solution: HBSS containing 10 mM Hepes, 4% BSA, pH 7.4.
(§8) Compound stock solution: a certain amount of the compound to be tested was weighed and formulated with DMSO to prepare a 10 mM stock solution.
(§9) MDCK cells (26th generation) in the logarithmic growth phase were digested and dispersed evenly with 0.05% trypsin-EDTA, and then inoculated into the Transwell chamber at 3*10^5 cells/cm^2, with 200 μL on the A side and 1000 μL on the B side. After inoculation, the medium was changed once every day and the culturing was carried out for 3 to 4 days.
(§10) The cell culture medium was discarded by pipetting, then washing was carried out three times with the permeating solution. 200 μL of permeating solution was added to A side and 1000 μL of permeating solution was added to B side. A voltage resistance meter was used to measure the cell transmembrane resistance (TEER). After the TEER value of the cells was measured, the permeating solution on both sides was discarded by pipetting, and the solution was added. After 120 minutes, 150 μL of samples were taken from A side and B side, respectively, and frozen at −80° C. before testing. Then, 10 μg/ml Fluorescent Yellow was added to A side. After incubation for 30 minutes, 100 μL of solution at B side was pipetted and added into a 96-well white plate. The fluorescence value was measured at the wavelengths of Ex=485 nm and Em=530 nm using a microplate reader, and the permeance was calculated (which was less than 1%).
(§11) 80 μL of the compound to be tested was taken, added to 320 μL of acetonitrile solution containing internal standard (30 ng/mL Tolbutamide), vortexed, and centrifuged for 10 min (4000 rpm, 4° C.), and the supernatant was taken for LC-MS/MS analysis.
(§12) Excel 2013 was used to calculate Papp values and Papp ratio of B side→A side to A side→B side, and the recovery rates of each Control Compound and the compound to be tested were calculated.
(§13) Apparent permeability coefficient (Papp) of compound was calculated according to the following formula:
(§14) C0 was the initial concentration (μM) of the drug to be tested at the donor, (dCr/dt)×Vr was the rate (μM/s) at which the drug to be tested appeared at the receiver, Vr was the solution volume (mL) at the receiver, and A was the surface area (cm^2) of polycarbonate membrane.
(§15) Evaluation criteria: Low permeability: Papp≤0.5 (×10^−6 cm/s) • Medium permeability: 0.5<Papp<2.5 (×10^−6 cm/s) • High permeability: Papp≥2.5 (×10^−6 cm/s)
(§16) Efflux ratio (ER) was calculated according to Papp:
(§17) [formula] • wherein, Papp(B→A) was the apparent permeability coefficient of the drug to be tested from the BL (baso-lateral) end to the AP (apical) end, and Papp (A→B) was the apparent permeability coefficient of the drug to be tested from the AP end to the BL end.
(§18) • Probably being an efflux transporter substrate (Probably): ERa≥2 and ERa/ERi>2 • Likely being an efflux transporter substrate (Likely): ERa≥2 • Unlikely or impossibly being an efflux transporter substrate (Poor or non): ERa<2 • wherein, ERi and ERa were the efflux ratios of the compound to be tested in the presence and absence of P-gp inhibitor, respectively.

[5] = Permeability test in MDCK cell model; type: in vitro ADME; conditions: dog; for efflux ratio at 120 min, 2 μM: pH 7.4, 2.00 μM, Papp(B→A)/Papp(A→B), absence of P-gp inhibitor, read-out: Efflux ratio (ERa)
Description: as §3, §4, §5, §6, §7, §8, §9, §10, §11, §12, §13, §14, §15, §16, §17, §18

[6] = test system: NCI-N87 cells; experiment: Inhibitory effect on NCI-N87 cell proliferation; type: cell-based; conditions: Homo sapiens, read-out: IC50 (nM), inhibitory activity on NCI-N87 cell proliferation
Description: (1) Cell plating: First, tumor cells NCI-N87 were cultured with corresponding culture medium, the cells were digested with trypsin and centrifuged, then the cells were resuspended and counted, and the cells were adjusted to an appropriate concentration for plating.
as §1, §2

[7] = test system: MDA-MB-453 cells; experiment: Inhibitory effect on MDA-MB-453 cell proliferation; type: cell-based; conditions: Homo sapiens; MDA-MB-453, 72 h incubation, Cell Counting-Lite 2.0
Description: (1) Cell plating: First, tumor cells MDA-MB-453 were cultured with corresponding culture medium, the cells were digested with trypsin and centrifuged, then the cells were resuspended and counted, and the cells were adjusted to an appropriate concentration for plating.
as §1, §2

[8] = test system: HT29 cells; experiment: Inhibitory effect on HT29 cell proliferation; type: cell-based; conditions: Homo sapiens, HT-29; HT29, 72 h incubation, Cell Counting-Lite 2.0
Description: (1) Cell plating: First, tumor cells HT29 were cultured with corresponding culture medium, the cells were digested with trypsin and centrifuged, then the cells were resuspended and counted, and the cells were adjusted to an appropriate concentration for plating.
as §1, §2

[9] = test system: Jeko-1 cells; experiment: Inhibitory effect on Jeko-1 cell proliferation; type: cell-based; conditions: Homo sapiens; Jeko-1, 72 h incubation, Cell Counting-Lite 2.0
Description: (1) Cell plating: First, tumor cells Jeko-1 were cultured with corresponding culture medium, the cells were resuspended and counted, and finally the cells were adjusted to an appropriate concentration for plating.
as §1, §2

[10] = pH 7.4, concentration 2.00 μM, 120 minutes, A to B, read-out: Papp A to B
[11] = pH 7.4, concentration 2.00 μM, 120 minutes, B to A, read-out: Papp B to A
[12] = NCI-N87, 72 h incubation, Cell Counting-Lite 2.0

| Structure (SMILES) | IC50 [1] [nM] | IC50 [2] [nM] | IC50 [3] [nM] | Efflux transporter substrate evaluation from efflux ratio ([4]; 2.00 μM) | Permeability class according to the Papp(A→B) results ([4]; 2.00 μM) | efflux ratio at 120 min, 2 μM [5] | Papp A→B at 120 min, 2 μM [5, 10] [×10⁻⁶ cm/s] | Papp B→A at 120 min, 2 μM [5, 11] [×10⁻⁶ cm/s] | IC50 ([6]; NCI-N87, 72 h) [nM] | IC50 [7] [nM] | IC50 [8] [nM] | IC50 [9] [nM] | Permeability class according to the Papp(A→B) results [4] | Papp A→B at 120 min, 2 μM ([5]; pH 7.4) [×10⁻⁶ cm/s] | Papp B→A at 120 min, 2 μM ([5]; pH 7.4) [×10⁻⁶ cm/s] | IC50 [6, 12] [nM] |
| --- | --- | --- | --- | --- | --- | --- | --- | --- | --- | --- | --- | --- | --- | --- | --- | --- |
| CC[C@@]1(O)C(=O)OCc2c1cc1n(c2=O)Cc2c-1nc1cc(F)c(Cl)cc1c2CN [Compound 1-1, (S)-11-(aminomethyl)-9-chloro-4-ethyl-8-fluoro-4-hydroxy-1,12-dihydro-14H-pyrano[3′,4′:6,7]indolizino[1,2-b]quinolin-3,14(4H)-dione] | 1.23 | 3.55 | 25.7 | not efflux transporter substrates or were weak efflux transporter substrates | high-permeability | 1.41 | 2.59 | 3.65 | 8.59 | 291 | 1.07 |  |  |  |  |  |
| CC[C@@]1(O)C(=O)OCc2c1cc1n(c2=O)Cc2c-1nc1cc(F)c(Cl)cc1c2CNC(=O)C(O)C1CC1 (some centres unmarked) [Compound 2-4] | 1.08 |  | 53.4 |  |  |  |  |  | 5.72 | 95.6 | 5.99 | 0.34 |  |  |  |  |
| CC[C@@]1(O)C(=O)OCc2c1cc1n(c2=O)Cc2c-1nc1cc(F)c(Cl)cc1c2CNC(=O)C(O)C(F)(F)F (stereo partly drawn) [Compound 2-19, N—(((S)-9-chloro-4-ethyl-8-fluoro-4-hydroxy-3,14-dioxo-3,4, 12,14-tetrahydro-1H-pyrano[3′,4′:6,7]indolizino[1,2-b]quinolin-11-yl)methyl)-3,3,3-trifluoro-2-hydroxypropionamide] | 0.78 |  | 12.7 | not efflux transporter substrates or were weak efflux transporter substrates |  | 1.48 |  |  |  |  | 2.93 | 1.09 | low-permeability | 0.5 | 0.73 | 5.69 |
| C=CC(O)C(=O)NCc1c2c(nc3cc(F)c(Cl)cc13)-c1cc3c(c(=O)n1C2)COC(=O)[C@]3(O)CC (stereo partly drawn) [Compound 2-22, N—(((S)-9-chloro-4-ethyl-8-fluoro-4-hydroxy-3,14-dioxo-3,4, 12,14-tetrahydro-1H-pyrano[3′,4′:6,7]indolizino[1,2-b]quinolin-11-yl)methyl)-2-hydroxy-3-enamine] | 6.09 |  |  | could be efflux transporter substrates |  | 2.24 |  |  |  |  | 10.2 | 1.11 | medium-permeability | 0.71 | 1.59 | 7.27 |
| CC[C@@]1(O)C(=O)OCc2c1cc1n(c2=O)Cc2c-1nc1cc(F)c(C)c3c1c2[C@@H](NS(N)(=O)=O)CC3 [Compound 7-1, (1S,9S)-1-sulfamoylamido-9-ethyl-5-fluoro-9-hydroxy-4-methyl-1,2,3,9,12,15-hexahydro-10H,13H-benzo[de]pyranol[3′,4′:6,7]indolizino[1,2-b]quinolin-10,13-dione] | 3.67 | 31 | 268 |  |  |  |  |  | 31.3 | 50.2 | 10.1 | 4.07 |  |  |  |  |
| CC[C@@]1(O)C(=O)OCc2c1cc1n(c2=O)Cc2c-1nc1cc(F)c(C)c3c1c2[C@@H](NC(N)=O)CC3 [Compound 7-2, 1-((1S,9S)-9-ethyl-5-fluoro-9-hydroxy-4-methyl-10,13-dioxy-2,3,9,10,13,15-hexahydro-1H,12H-benzo[de]pyrano[3′,4′:6,7]indolizino[1,2-b]quinolin-1-yl)urea] | 18.6 | 30.6 | 287 |  |  |  |  |  | 80.8 | 203 | 22.8 | 2.17 |  |  |  |  |
| CC[C@@]1(O)C(=O)OCc2c1cc1n(c2=O)Cc2c-1nc1cc(F)c(C)cc1c2CN [Control Compound 1, reference compound] |  |  |  | could be efflux transporter substrates | medium-permeability | 2.06 | 1.31 | 2.71 |  |  |  |  |  |  |  |  |
| CC[C@@]1(O)C(=O)OCc2c1cc1n(c2=O)Cc2c-1nc1cc(F)c(C)cc1c2CNC(=O)CO [Control Compound 2, reference compound] |  |  |  | could be efflux transporter substrates | low-permeability | 28 | 0.01 | 0.4 |  |  |  |  |  |  |  |  |
| CC[C@@]1(O)C(=O)OCc2c1cc1n(c2=O)Cc2c-1nc1cc(F)c(C)c3c1c2[C@@H](NC(=O)CO)CC3 [Control Compound 3, reference compound] |  |  |  | could be efflux transporter substrates | low-permeability | 15.2 | 0.31 | 4.65 |  |  |  |  |  |  |  |  |

From US20260258051A1, “Camptothecin Compound, Preparation Method Therefor and Use Thereof” (SICHUAN KELUN-BIOTECH BIOPHARMACEUTICAL CO., LTD., priority 2022, published 2026)
